Data published in PMC12356476, “Transferrin conjugated pH/NIR-responsive black phosphorus nanoplatform: A novel multimodal approach for breast cancer theranostics” (International Journal of Pharmaceutics: X, 2025).
Converted amounts (≈) assume the structure as drawn.

How the values were obtained:
4 T1 cells [1] = experiment: Cellular uptake by flow cytometry; type: cell-based, murine; details: ~5 μg/mL, no irradiation
Description: To understand the cellular uptake of nanoformulations, flow cytometry was employed. 4 T1 cells were seeded into 6-well plates and allowed to adhere for 24 h prior to treatment. […] Followed by the removal of culture medium after 2 h of treatment, test samples were added, and the laser groups were exposed to NIR-II 808 nm laser for 5 min and kept in incubator for 2 h. The plates were taken and added with trypsin for the detachment of 4 T1 cells. It was then collected, centrifuged to separate free DOX and BP-based nanoformulation, and analyzed using a flow cytometer (BD Accuri). Untreated 4 T1 cells were used as a control group.

[2] = test system: 4T1 tumour bearing BALB/c mice; experiment: Blood (haematological) parameters estimation; type: in vivo
Description: A total of about 100 μL of blood was collected from the retroorbital route and collected into a tube with 10 μL of EDTA for a complete blood count such as RBC, WBC, platelets and hemoglobin analysis using Nihon Kohden blood analyzer (celltac alpha-MEK-6550, India).

[3] = test system: 4 T1-breast tumour bearing BALB/c mice; experiment: Histopathological analysis (H&E) of tumour tissues and other organs; type: in vivo; design: key to Tumour cells / Necrosed area / Malignant features like nuclear pleomorphism, hyperchromatism / inflammation / Muscle invasion: -: Nil; + few; ++ Many; +++ Abundant; details: for Malignant features like nuclear pleomorphism, hyperchromatism / Mitotic count/10HPF / Muscle invasion / Necrosed area / Tumour cells / inflammation: tumour tissue, 14 days
Description: (§1) On the last day of the treatment (Day 14), the BALB/c mice were euthanized by cervical dislocation and major organs were collected, washed and fixed with 4 % paraformaldehyde for Hematoxylin and Eosin (H&E) staining.
Three BALB/c mice from each group were sacrificed after 14 days of treatment. The tissues (liver, spleen, lung, heart, kidney, and breast tumour) were isolated and fixed with 10 % formalin for 24 to 48 h. The tissue slides were examined using the LX-500 LED trinocular Research microscope, and pictures were captured using the MiaCam CMOS AR 6pro microscope camera coupled to image AR pro software. The slides were graded according to tumour cells, necrosed areas, malignant features like nuclear pleomorphism and hyperchromatism, inflammation, muscle invasion and mitotic count counted in 10 consecutive high-power fields (HPFs).

[4] = test system: 4 T1-breast tumour bearing BALB/c mice; experiment: Biodistribution study by in vivo fluorescence imaging; details: i.v., imaging 0.5 to 36 h post-injection
From the text: In vivo biodistribution study of plain DOX, and BP-DOX@PDA-TF were monitored with an in vivo imaging system. […] Using IVIS® containing 620 nm and 780 nm filters respectively for excitation and emission, tumour accumulation trends were examined across various time periods following injection.

4 T1 cells [5] = experiment: In vitro PTT study (MTT with 808 nm NIR irradiation); type: cell-based, murine; details: 4 T1 tumour cellular toxicity after 48 h; 808 nm laser 1.0 W/cm^2 for 10 min
Description: Based on the results of cytotoxicity in 4 T1 cells produced by the test compounds, five concentrations were selected (100, 10, 1, 0.1, 0.001) to evaluate the extent of cytotoxicity in the presence of NIR radiation of 808 nm. 4 T1 cell line was seeded and incubated for 24 h. After refreshing the medium, the wells were added with samples at 37 °C for 4 h, and irradiated with 808 nm laser (1.0 W/cm^2) for 10 mins incubated till 48 h ([Phan et al., 2017]; [Xu et al., 2021]).
Absorbance data were observed, and percentage tumour cell growth inhibition was measured using the following formula: Percentage growth inhibition=Absorbance of Blank−Absorbance of test/Absorbance of BlankX100

[6] = test system: chorioallantoic membrane (CAM) of fertilized chicken eggs; experiment: Chorioallantoic membrane (CAM) assay; type: in vivo; details: 200 μL applied on day 8, observed at 8 and 24 h; DOX equivalent 200 μg
Description: The CAM assay is a method used to assess the effects of chemical agents/formulations on the developing, highly vascularized CAM. Fertilized chicken eggs were obtained, disinfected with 70 % ethanol, and incubated in a humidified environment. The eggs were kept horizontal and regularly rotated. […] Lenalidomide was considered as positive and normal saline (NS) as negative control. Following application, the egg's cavity was resealed with scotch tape and returned to the incubator. Changes in the blood vessel morphology were examined at 8 and 24 h after incubation ([Raychaudhuri et al., 2021]).

[7] = In vivo pharmacokinetics after i.v. injection; details: 5 mg/kg DOX equivalent, BALB/c mice, plasma, Mean ± SD, n = 3
Description: Female BALB/c mice (6–8 weeks old, 18–25 g) were obtained from a certified animal supplier and used for the study. Prior to the start of the experiment, all animals were housed under standard laboratory conditions (12-h light/dark cycle, temperature 22 ± 2 °C, relative humidity 50–60 %) with ad libitum access to food and water. A two-week acclimatization period was provided to allow the animals to adjust to the laboratory environment. […] Mice were randomly assigned to experimental groups (n = 3 per group), and all efforts were made to minimize suffering. The allocation and data collection were conducted in a blinded manner wherever applicable. No animals were excluded from the analysis unless stated otherwise.
Blood sample was collected in EDTA solution containing tubes at intervals ranging from 5 min to 48 h post-administration and then centrifuged to separate the plasma ([Zeng et al., 2019]).

4 T1 cells [8] = experiment: MTT cytotoxicity assay without irradiation; type: cell-based, murine; details: 4 T1 tumour cellular toxicity after 48 h
Description: The 4 T1 cell line, a murine breast tumour cell line derived from BALB/cf3H mice, was obtained from Elabsciences, Inc. The cytotoxicity of BP-based nanoformulation were evaluated using MTT assay. […] After 48 h, media was discarded and added with 50 μL of MTT reagent (2 mg/ml). The samples were then kept for 4 h of incubation and added with 50 μL DMSO to solubilize the formazan crystals. OD (optical density) was evaluated at 540 nm in a microplate reader (ELx800). Absorbance data were observed, and percentage tumour cell growth inhibition was measured using the following formula: Percentage growth inhibition=Absorbance of Blank−Absorbance of test/Absorbance of BlankX100

[9] = test system: 4 T1-breast tumour bearing BALB/c mice; experiment: Pharmacodynamic study (antitumour efficacy); type: in vivo; details: i.v., 5 mg/kg eq. to DOX, 14 days
Description: Female BALB/c mice were given a subcutaneous injection of 4 T1 cells (1.5 × 10^6 cells) in 100 μL of cold PBS, into the dorsal flank. The breast tumour appeared in 10–14 days while the mice were under close observation. Using a vernier caliper, the length and width were measured, and the tumour volume was measured. When the tumour volume reached about 75 to 100 mm^3, the mice were grouped randomly to 10 groups (n = 3):
Group I: Saline (i v injection).
Group II: Saline + NIR (i v injection).
Group III: BPNSs (Dose: 5 mg/Kg) (i v injection).
Group IV: BPNSs + NIR (Dose: 5 mg/Kg) (i v injection).
After 2 h of injection, the laser irradiation groups were exposed to 808 nm NIR laser (1 W/cm^2) for 5 min. The starting day of the treatment was considered as 0th day and checked for body weight in every day and tumour volume in every 2 days. The following equation was used for the measurement of tumour volume (V): Volumemm^3=Width^2XLength/2
as §1

[10] = after 14 days of treatment and NIR Irradiation
[11] = after 14 days of treatment, no NIR irradiation

## COc1cccc2c1C(=O)c1c(O)c3c(c(O)c1C2=O)C[C@@](O)(C(=O)CO)C[C@@H]3O[C@H]1C[C@H](N)[C@H](O)[C@H](C)O1 [DOX, Doxorubicin]
4 T1 cells [1]
  cellular uptake (DOX fluorescence intensity): greater fluorescence intensity than BP-based NPs
[2]; [10]
  HCT: 46.76±4.31%
  HGB: 13.88 ± 1.28 g/dL
  MCH: 16.35 ± 1.51 pg
  MCV: 50.93 ± 3.10 fL
  MPV: 6.39 ± 0.59 fL
  PDW: 14.34 ± 1.32 fL
  PLT: 924.2±85.27 ×10^3/µL
  RBC: 7.8±1.31 ×10^6/µL
  RDW‐CV: 13.61±1.26%
  RDW‐SD: 35.71 ± 3.29 fL
  WBC: 8.77±0.81 10^3/µL
[2]; [11]
  HCT: 42.69±4.36%
  HGB: 14.57 ± 0.42 g/dL
  MCH: 16.27 ± 1.64 pg
  MCV: 52.77 ± 4.81 fL
  MPV: 6.37 ± 1.21 fL
  PDW: 14.77 ± 2.06 fL
  PLT: 940±75.19 ×10^3/µL
  RBC: 9.39±1.2 ×10^6/µL
  RDW‐CV: 13.77±0.38%
  RDW‐SD: 38.17 ± 3.09 fL
  WBC: 9.73±1.5 10^3/µL
[3]; H&E, 14 days of treatment
  liver pathology: severe hypertrophy and liver congestion
[3]; NIR irradiated
  Malignant features like nuclear pleomorphism, hyperchromatism: +++
  Mitotic count/10HPF: 23 /10HPF
  Muscle invasion: -
  Necrosed area: +++
  Tumour cells: +++
  inflammation: -
[3]; NIR non-irradiated
  Malignant features like nuclear pleomorphism, hyperchromatism: ++
  Mitotic count/10HPF: 4 /10HPF
  Muscle invasion: -
  Necrosed area: -
  Tumour cells: +
  inflammation: +++
[4]
  fluorescence signal of DOX at the tumour region: significantly reduced signal
4 T1 cells [5]
  IC50 value, NIR Irradiated: 1.58 µg/mL (≈ 2.91 µM)
[6]
  toxicity to the CAM (coagulation, hemorrhage, vascular morphology, embryotoxicity): notable sign of toxicity such as coagulation, bleeding, and embryo toxicity
[7]
  AUC(0-t): 2976.15 ± 1191.277 ng·h/mL
  AUC(0-∞): 3168.98 ± 1086.246 ng·h/mL
  Cmax: 469.73 ± 93.78 ng/mL
  Ke: 0.141 ± 0.05 h⁻¹
  T max: 4.98 ± 0 min
  t1/2: 5.47 ± 2.15 h
4 T1 cells [8]
  IC50 value, Non NIR Irradiated: 2.84 µg/mL (≈ 5.23 µM)
[9]
  breast tumour growth suppression: failed to efficiently suppress the breast tumour growth
